Experimental data from patent US7998460B2, “Prevention of deficits in neurogenesis with anti-inflammatory agents” (The Board of Trustees of the Leland Stanford Junior …, priority 2003, dated 2011).
Entries after “also recorded” stand apart in the source; their conditions may differ.

What was measured:
hippocampal neurogenesis [1] = assay: Oral NSAID course and LPS challenge, hippocampal neurogenesis at day 28 in mice; type: in vivo, mouse; conditions: oral NSAID course, LPS 5 mg/kg
Procedure: Mice were started on a 16 day preventative course of oral NSAID and then challenged with a single IP injection of LPS (5 mg/kg) and then BrdU (50 mg/kg) over 6 days beginning 2 h after LPS. The mice were either perfused 28 days after LPS injection, or trained and tested in the Morris water maze.
Subjects. All mice used as subjects in this study were treated in accordance with the policies set forth by the Stanford Animal Care and Use Committee and NIH regarding the ethical use of animals for experimentation. CB57BI/6 mice (7 wks old upon arrival from -Taconic) were housed in groups of 4-5 in autoclaved shoebox cages under standard conditions and were given free access to autoclaved Prolab Mouse 3000 chow (PMI Nutrition International, St. Louis, Mo.) and autoclaved tap water. One week after arrival, vehicle- and NSAID-treated mice were given an intraperitoneal (i.p.) injection of sterile saline or lipopolysaccharide (LPS; 5 mg/kg at a concentration of 1 mg/ml isotonic saline; Sigma Aldrich, St. Louis, Mo.) to induce transient illness (Day 0) and daily subcutaneous (s.c.) isotonic saline (0.5 ml) injections (Days 0-3) to prevent illness-induced dehydration. The cell synthesis marker bromodeoxyuridine (BrdU; Sigma Aldrich, St. Louis, Mo.) was injected i.p. (50 mg/kg at a concentration of 10 mg/ml in freshly prepared isotonic saline) once per day for 6 days to label dividing cells, beginning Day 0 (2 h after LPS). The mice were anesthetized with ketamine/xylazine and killed at Days 7 or 28 (to assess hippocampal neurogenesis during illness and just before behavioral testing, respectively) or Day 80 (to measure hippocampal neurogenesis following behavioural testing) by perfusion with 4% paraformaldehyde. Brains were post-fixed overnight in perfusate, microtome sectioned at 40 μm through the hippocampus and stored in tissue cryoprotectant solution at −20° C. until processed immunohistochemically.
NSAID treatment. […]

hippocampal neurogenesis [2] = assay: 10 Gy cranial X-irradiation, microglial inflammation and hippocampal neurogenesis at 2 months; type: in vivo, rat
Procedure: Because rats are more radio resistant than humans, 10 Gy approximates a clinically relevant dose and is below the threshold to cause demyelination or overt vasculopathy in rats. This dose of X-irradiation was previously shown to spare roughly 30% of the NPC proliferative activity but completely ablate the production of neurons. X-irradiation was limited to a 1.5 cm cylinder centered over the cranium (remaining body parts were shielded). One month later, BrdU was administered systemically and at 2 months post-irradiation, brain tissues were analyzed for hippocampal neurogenesis.
Control animals were given either vehicle (5% bicarbonate) injections i.p. or plain dog food. To ensure complete consumption of food and medication in the 2 month paradigm, rats were restricted to 80% of their ad lib intake.
Irradiation Adult female Fisher 344 rats were anesthetized with ketamine and xylazine and exposed to cranial irradiation using a Philips orthovoltage X-ray system operated at 200 kVp and 20 mA. A single dose of 10 Gy was delivered to the cranium of each rat with shielding of the body, neck, eyes and snout. Dosimetry was done using TLD dosimeters (K & S Associates, Nashville, Tenn.) buried in the hippocampi, cerebellum, mouth, eyes and ears of euthanized rats. The corrected dose rate was approximately 44.5 cGy/minute. Sham-irradiated controls for all experiments received anesthesia only.
BrdU injections and tissue preparation. Animals were injected intraperitoneally with BrdU once each day for 6 days. Animals were then anesthetized and sacrificed on the 28th day after the initial BrdU injection by transcardial perfusion with 4% paraformaldehyde. Brains were removed and postfixed overnight and then equilibrated in phosphate buffered 30% sucrose. Free floating 40 μm sections were collected on a freezing microtome and stored in cryoprotectant as previously described.
Immunocytochemistry and immunofluorescent staining. […]
Cell counting and unbiased stereology. […] The proportion of BrdU cells displaying a lineage-specific phenotype was determined by scoring the co-localization of cell phenotype markers with BrdU using confocal microscopy. […] When possible, 100 or more BrdU-positive cells were scored for each marker per animal. Each cell was manually examined in its full “z”-dimension and only those cells for which the nucleus was unambiguously associated with the lineage-specific marker were scored as positive. The total number of BrdU-labeled cells per hippocampal granule cell layer and subgranule zone was determined using diaminobenzadine stained tissues. In a separate series, the total number of ED1-labeled cells per dentate gyrus was also determined using diaminobenzadine stained tissue. Stained BrdU-positive nuclei or ED1-positive cells were scored under light microscopy using Microbrightfield Stereo Investigator software and the Fractionator method. Overestimation was corrected using the Abercrombie method for nuclei with empirically determined average diameter of 13 μm within a 40 μm section.

[3] = Sickness behavior after LPS in rats; type: in vivo, rat; conditions: LPS 1 mg/Kg i.p. one time
Procedure: LPS exposure. Bacterial lipopolysaccharide (LPS, Sigma, St Louis, Mo.) was administered in sterile saline by intraperitoneal injection at a dose of 1 mg/Kg one time. This caused mild sickness behavior (decreased grooming, decreased locomotor activity, increased piloerection) for approximately 2 days, resolving by the 3rd day. The dose of LPS chosen causes mild sickness behavior in rats that resolves within 1-2 days; the dose of LPS used to induce endotoxic shock is 10-fold higher than that used in the present study.

| Compound | effect on LPS-induced deficit in fraction of newborn cells adopting a neuronal fate (DCX and/or NeuN) by Day 28 (hippocampal neurogenesis [1]) | effect on LPS-induced reduction of transition state and mature neurons (hippocampal neurogenesis [1]; Day 28) | effect on cell fate in non-irradiated rats (hippocampal neurogenesis [2]; indomethacin, non-irradiated) | effect on CD11b/NG2+ infiltrating peripheral monocytes (hippocampal neurogenesis [2]; irradiated, indomethacin 2.5 mg/Kg orally every 12 hours) | proportion of proliferative cells adopting a neuronal fate (hippocampal neurogenesis [2]; irradiated, indomethacin-treated (untreated irradiated 15%)) [%] | total newborn hippocampal neurons (hippocampal neurogenesis [2]; irradiated, indomethacin-treated (untreated irradiated 125±25)) [newborn neurons] | total BrdU+ proliferative cells per neurogenic region of the dentate gyrus (hippocampal neurogenesis [2]; irradiated, indomethacin-treated (untreated irradiated 828±135)) [proliferative cells] | duration of mild sickness behavior [3] |
| --- | --- | --- | --- | --- | --- | --- | --- | --- |
| COc1ccc2c(c1)c(CC(=O)O)c(C)n2C(=O)c1ccc(Cl)cc1 [indomethacin] | attenuated, but did not completely reverse this deficit; also recorded: attenuated this deficit | partially reversed the effects of LPS | no effect | particularly effective at decreasing; also recorded: significantly reduced | 37 | 360±68 | 958±136 |  |
| lipopolysaccharide [LPS] |  |  |  |  |  |  |  | approximately 2 days |
